According to article PMC9363158 (HIV medicine, 2021):
Values joined by “and” are separate entries in the source; they are usually repeats but may differ in a detail not shown here. Identical values can stand only once. Like-named read-outs stand apart in the source and are kept apart here.

Key:
[1] = dolutegravir protein binding in Williams' Medium E by rapid equilibrium dialysis; type: in vitro ADME
CYP1A2 = assay: CYP gene expression in human hepatocytes; type: in vitro ADME
CYP2B6 [2] = assay: CYP gene expression in human hepatocytes; type: in vitro ADME
CYP3A4 [3] = system: CYP3A4
[4] = in vivo; cited from earlier work
CYP2B6 [5] = settings: total dolutegravir up to and including 40 μM, 48 h; cited from earlier work
CYP3A4 [6] = settings: total dolutegravir up to and including 40 μM, 48 h; cited from earlier work
CYP3A4 [7] = assay: in vitro; settings: human, fold induction of CYP3A4 expression
rhCYP3A4 = rhCYP3A4 (Homo sapiens, UniProt P08684); assay: levonorgestrel clearance by recombinant human CYP; type: in vitro ADME
rhCYP3A5 = rhCYP3A5 (Homo sapiens, UniProt P20815); assay: levonorgestrel clearance by recombinant human CYP; type: in vitro ADME
rhCYP2C9 = rhCYP2C9 (Homo sapiens, UniProt P11712); assay: levonorgestrel clearance by recombinant human CYP; type: in vitro ADME
rhCYP2C19 = rhCYP2C19 (Homo sapiens, UniProt P33261); assay: levonorgestrel clearance by recombinant human CYP; type: in vitro ADME
rhCYP1A2 = molecular target: T1, rhCYP1A2 (Homo sapiens, UniProt P05177); assay: levonorgestrel clearance by recombinant human CYP; type: in vitro ADME
T1 sequence (P05177 1-516): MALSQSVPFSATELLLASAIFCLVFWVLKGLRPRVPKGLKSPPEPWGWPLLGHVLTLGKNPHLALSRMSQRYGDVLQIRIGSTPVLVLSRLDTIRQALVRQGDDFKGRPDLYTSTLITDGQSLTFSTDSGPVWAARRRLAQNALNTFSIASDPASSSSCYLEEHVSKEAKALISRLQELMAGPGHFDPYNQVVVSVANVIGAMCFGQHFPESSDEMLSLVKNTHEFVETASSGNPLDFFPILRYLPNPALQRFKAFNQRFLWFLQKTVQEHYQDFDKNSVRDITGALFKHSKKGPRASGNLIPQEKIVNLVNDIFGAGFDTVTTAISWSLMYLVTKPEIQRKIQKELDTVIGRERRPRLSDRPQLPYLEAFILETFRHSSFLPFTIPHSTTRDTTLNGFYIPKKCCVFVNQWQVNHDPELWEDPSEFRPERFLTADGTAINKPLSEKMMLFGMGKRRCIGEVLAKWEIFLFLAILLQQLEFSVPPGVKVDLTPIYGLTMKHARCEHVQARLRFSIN

rhCYP2B6 = molecular target: T2, rhCYP2B6 (Homo sapiens, UniProt P20813); assay: levonorgestrel clearance by recombinant human CYP; type: in vitro ADME
T2 sequence (P20813 1-491): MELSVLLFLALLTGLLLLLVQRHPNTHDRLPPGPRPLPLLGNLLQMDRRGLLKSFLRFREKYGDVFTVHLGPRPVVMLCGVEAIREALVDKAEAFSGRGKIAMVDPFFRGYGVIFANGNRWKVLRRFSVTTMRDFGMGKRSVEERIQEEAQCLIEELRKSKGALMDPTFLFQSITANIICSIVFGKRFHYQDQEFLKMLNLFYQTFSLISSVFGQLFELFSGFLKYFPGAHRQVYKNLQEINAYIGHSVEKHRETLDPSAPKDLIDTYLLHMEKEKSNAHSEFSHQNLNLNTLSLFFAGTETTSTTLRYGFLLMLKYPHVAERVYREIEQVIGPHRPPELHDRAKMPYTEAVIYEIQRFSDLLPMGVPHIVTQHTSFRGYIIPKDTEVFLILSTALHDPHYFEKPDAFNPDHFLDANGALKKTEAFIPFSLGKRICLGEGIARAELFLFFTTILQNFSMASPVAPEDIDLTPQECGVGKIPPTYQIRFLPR

hepatic CYPs = assay: total apparent and systemic plasma clearance scaled from rhCYP data; type: in vitro ADME, human
[8] = levonorgestrel CLint.app. by cryopreserved primary human hepatocytes; type: in vitro ADME; settings: cryopreserved primary human hepatocytes (plated)
[9] = administered orally; cited from earlier work
[10] = Jadelle subdermal implants, cited from earlier work
[11] = cited from earlier work
CYP3A4 [12] = settings: read-out: mean observed Km of progesterone metabolism by CYP3A4; liver microsome studies; cited from earlier work
CYP2C19 = settings: read-out: mean observed Km of progesterone metabolism by CYP2C19; liver microsome studies; cited from earlier work
CYP2C9 = settings: read-out: mean observed Km of progesterone metabolism by CYP2C9; liver microsome studies; cited from earlier work
[13] = clinical observation with rifampin; cited from earlier work
[14] = human, cryopreserved primary human hepatocytes
[15] = levonorgestrel 5 μM, 60 min, vs ketoconazole inhibitor control
[16] = scaled from rhCYP data to adult female liver (Eq. 2)

Sequence of rhCYP3A4 (P08684 whole entry): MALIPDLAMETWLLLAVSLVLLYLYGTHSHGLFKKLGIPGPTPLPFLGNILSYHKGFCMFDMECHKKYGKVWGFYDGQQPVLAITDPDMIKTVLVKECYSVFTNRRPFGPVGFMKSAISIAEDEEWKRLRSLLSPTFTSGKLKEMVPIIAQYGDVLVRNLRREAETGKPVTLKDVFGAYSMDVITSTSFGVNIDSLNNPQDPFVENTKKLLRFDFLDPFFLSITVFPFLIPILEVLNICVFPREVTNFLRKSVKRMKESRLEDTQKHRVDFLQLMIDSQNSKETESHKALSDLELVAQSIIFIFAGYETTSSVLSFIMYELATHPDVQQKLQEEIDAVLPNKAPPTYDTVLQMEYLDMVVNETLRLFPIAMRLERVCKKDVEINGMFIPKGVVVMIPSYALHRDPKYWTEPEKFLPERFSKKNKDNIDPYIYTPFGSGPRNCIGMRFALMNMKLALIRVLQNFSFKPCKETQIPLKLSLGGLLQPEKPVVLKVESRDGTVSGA
Sequence of rhCYP3A5 (P20815 whole entry): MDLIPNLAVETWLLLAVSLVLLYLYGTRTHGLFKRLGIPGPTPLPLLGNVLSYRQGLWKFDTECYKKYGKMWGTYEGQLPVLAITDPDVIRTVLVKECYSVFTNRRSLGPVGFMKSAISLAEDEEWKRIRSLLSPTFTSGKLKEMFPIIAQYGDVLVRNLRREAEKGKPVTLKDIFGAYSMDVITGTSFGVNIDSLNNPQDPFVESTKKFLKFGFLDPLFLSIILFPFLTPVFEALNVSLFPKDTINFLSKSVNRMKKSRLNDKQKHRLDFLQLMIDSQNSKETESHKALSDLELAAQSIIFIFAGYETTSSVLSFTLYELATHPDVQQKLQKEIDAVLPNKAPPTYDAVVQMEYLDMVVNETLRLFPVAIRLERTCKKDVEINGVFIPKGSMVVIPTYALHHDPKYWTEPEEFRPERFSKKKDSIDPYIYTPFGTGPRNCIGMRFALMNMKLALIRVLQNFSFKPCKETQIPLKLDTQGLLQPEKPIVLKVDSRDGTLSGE
Sequence of rhCYP2C19 (P33261 whole entry): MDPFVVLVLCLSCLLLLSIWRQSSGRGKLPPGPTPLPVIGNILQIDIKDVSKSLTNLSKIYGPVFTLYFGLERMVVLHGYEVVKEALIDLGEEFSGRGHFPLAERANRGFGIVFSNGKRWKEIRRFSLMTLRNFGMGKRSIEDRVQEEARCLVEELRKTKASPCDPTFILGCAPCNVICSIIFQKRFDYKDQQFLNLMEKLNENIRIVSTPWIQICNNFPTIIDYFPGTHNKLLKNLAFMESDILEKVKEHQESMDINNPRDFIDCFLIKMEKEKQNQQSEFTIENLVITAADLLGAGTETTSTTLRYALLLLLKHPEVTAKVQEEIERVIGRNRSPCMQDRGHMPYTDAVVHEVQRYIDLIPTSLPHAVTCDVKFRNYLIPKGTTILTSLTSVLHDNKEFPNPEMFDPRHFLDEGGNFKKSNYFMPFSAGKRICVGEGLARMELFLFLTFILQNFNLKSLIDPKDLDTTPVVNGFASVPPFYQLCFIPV
Sequence of rhCYP2C9 (P11712 whole entry): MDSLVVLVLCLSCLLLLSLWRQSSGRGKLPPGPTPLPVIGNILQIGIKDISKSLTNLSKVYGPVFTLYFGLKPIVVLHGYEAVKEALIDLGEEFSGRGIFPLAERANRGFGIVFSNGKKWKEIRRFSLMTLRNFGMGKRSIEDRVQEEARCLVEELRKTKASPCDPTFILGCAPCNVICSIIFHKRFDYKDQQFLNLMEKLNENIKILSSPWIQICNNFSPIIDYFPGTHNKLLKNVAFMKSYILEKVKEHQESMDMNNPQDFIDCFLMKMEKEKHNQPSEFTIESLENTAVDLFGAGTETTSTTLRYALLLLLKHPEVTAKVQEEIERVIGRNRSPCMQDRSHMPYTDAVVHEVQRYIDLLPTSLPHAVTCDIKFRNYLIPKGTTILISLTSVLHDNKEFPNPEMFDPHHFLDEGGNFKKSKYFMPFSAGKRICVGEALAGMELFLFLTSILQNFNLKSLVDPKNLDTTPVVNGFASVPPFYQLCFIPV

## C[C@@H]1CCO[C@H]2Cn3cc(C(=O)NCc4ccc(F)cc4F)c(=O)c(O)c3C(=O)N12 [dolutegravir]
[1]
  fraction unbound at 4 h, 5 μM: 0.43 ± 0.09
CYP1A2; dolutegravir 0.00033–10 μM (unbound 0.142–4310 nM), 72 h
  induction of CYP1A2 expression (≥ two-fold above vehicle control): did not induce the expression of CYP1A2
CYP2B6 [2]; dolutegravir at concentrations spanning unbound range reported in human plasma (24.6–57.2 nM), 72 h
  effect on expression of CYP2B6: no effect
CYP2B6 [2]; [14]
  fold induction at 72 h, 3.33 μM: 2.2 ± 0.3
  fold induction at 72 h, 10 μM: 2.3 ± 0.7
CYP3A4 [3]
  effect on expression of CYP3A4: no effect
[4]
  unbound concentration range in human plasma: 24.6 to 57.2 nM
CYP2B6 [5]
  effect on expression of CYP2B6: expression of neither CYP2B6 nor CYP3A4 was affected
CYP3A4 [6]
  effect on expression of CYP3A4: expression of neither CYP2B6 nor CYP3A4 was affected
CYP3A4 [7]
  fold induction: 2.3 ± 0.4

## C#C[C@]1(O)CC[C@H]2[C@@H]3CCC4=CC(=O)CC[C@@H]4[C@H]3CC[C@@]21CC [levonorgestrel]
rhCYP3A4; [15]
  levonorgestrel CLint.app. mediated by rhCYP3A4: 0.182 ± 0.036 µL/min/pmol
rhCYP3A4; [16]
  total intrinsic clearance by a single CYP in the liver as a whole (TCLH), CYP3A4: 52.5 ± 10.4 L/h
rhCYP3A5; [15]
  levonorgestrel CLint.app. rhCYP3A5: 0.178 ± 0.027 µL/min/pmol
rhCYP3A5; [16]
  TCLH, CYP3A5: 9.4 ± 1.4 L/h
rhCYP2C9; levonorgestrel 5 μM, 60 min, vs sulfaphenazole inhibitor control
  levonorgestrel CLint.app. rhCYP2C9: 0.062 ± 0.010 µL/min/pmol
rhCYP2C9; [16]
  TCLH, CYP2C9: 11.6 ± 1.9 L/h
rhCYP2C19; levonorgestrel 5 μM, 60 min, vs (+)-N-3-benzylnirvanol inhibitor control
  levonorgestrel CLint.app. rhCYP2C19: 0.046 ± 0.005 µL/min/pmol
rhCYP2C19; [16]
  TCLH, CYP2C19: 1.6 ± 0.2 L/h
rhCYP1A2; levonorgestrel 5 μM, 60 min, vs α-naphthoflavone inhibitor control
  levonorgestrel CLint.app. rhCYP1A2: 0.028 ± 0.012 µL/min/pmol
rhCYP1A2; [16]
  TCLH, CYP1A2: 3.4 ± 1.5 L/h
rhCYP2B6; levonorgestrel 5 μM, 60 min, vs sertraline inhibitor control
  levonorgestrel CLint.app. rhCYP2B6: 0.052 ± 0.004 µL/min/pmol
rhCYP2B6; [16]
  TCLH, CYP2B6: 2.6 ± 0.2 L/h
Hepatic CYPs; from CLapp, fu 3% (Eq. 4)
  total systemic plasma clearance: 2.38 ± 0.46 L/h
Hepatic CYPs; sum of TCLH of six CYPs (Eq. 3)
  total apparent clearance (CLapp) by the hepatic CYPs measured: 80.97 ± 15.53 L/h
[8]
  hepatocyte CLint at 1 nM: 22.4 ± 5 µL/min/1e6 cells
[9]
  oral bioavailability: high bioavailability
[10]; 1 month after insertion
  plasma concentration of levonorgestrel: 1.39 nM and 435 pg/mL
[10]; 3 years after insertion
  plasma concentration of levonorgestrel: 0.90 nM and 280 pg/mL
[11]
  bound to human plasma: 97%
[11]; set from 97% binding
  fraction unbound in plasma (fu): 3%

## CCC1(c2ccccc2)C(=O)NC(=O)NC1=O [phenobarbital]
CYP1A2; [14]
  fold induction at 72 h, 1 mM: 2.7 ± 0.6
CYP2B6 [2]; [14]
  fold induction at 72 h, 1 mM: 2.6 ± 1.1
CYP3A4 [3]; human, hepatocytes
  fold increase in CYP3A4 expression: 4.8 ± 0.7 fold

## CC(=O)[C@H]1CC[C@H]2[C@@H]3CCC4=CC(=O)CC[C@]4(C)[C@H]3CC[C@]12C [progesterone]
CYP3A4 [12]
  Km: 80 µM
CYP2C19
  Km: 37 µM
CYP2C9
  Km: 46 µM

## CO[C@H]1/C=C/O[C@@]2(C)Oc3c(C)c(O)c4c(O)c(c(/C=N/N5CCN(C)CC5)c(O)c4c3C2=O)NC(=O)/C(C)=C\C=C\[C@H](C)[C@H](O)[C@@H](C)[C@@H](O)[C@@H](C)[C@H](OC(C)=O)[C@@H]1C [rifampin]
CYP2B6 [2]; [14]
  fold induction at 72 h, 10 μM: 2 ± 0.5
[13]
  decrease of levonorgestrel exposure: 58%
